Test results from PubChem BioAssay AID248 (DTP/NCI, 2004).
Where “and” joins values, the source holds several entries; their conditions need not be identical. Identical values can stand only once. Inconclusive results and toxic doses are left out. No stated cut-off is given here; in the data, active means T/C of 150% or more; inactive means T/C below 125%.

Test system: L1210 leukemia ip in BDF1 mice, survival T/C
Assay: NCI In Vivo Anticancer Drug Screen. Data for tumor model L1210 Leukemia (intraperitoneal) in B6D2F1 (BDF1) mice
Conditions: endpoint: mean survival time, higher = longer survival
Summary of the method: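 Each compound was tested against a transplantable tumor grown in mice. The endpoint was survival, with treated animals benchmarked against vehicle controls as a simple ratio.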

[1] = dose: 100.0 mg/kg/injection, schedule: Q04DX002 (ip), vehicle: Klucel (hydroxypropylcellulose) (HPC)
[2] = dose: 100.0 mg/kg/injection, schedule: Q04DX003 (ip), vehicle: saline with Tween-80
[3] = dose: 200.0 mg/kg/injection, schedule: Q04DX003 (ip), vehicle: saline with Tween-80
[4] = dose: 400.0 mg/kg/injection, schedule: Q04DX003 (ip), vehicle: saline with Tween-80
[5] = dose: 100.0 mg/kg/injection, schedule: Q01DX009 (ip), vehicle: Klucel (hydroxypropylcellulose) (HPC)
[6] = dose: 200.0 mg/kg/injection, schedule: Q01DX009 (ip), vehicle: Klucel (hydroxypropylcellulose) (HPC)
[7] = dose: 400.0 mg/kg/injection, schedule: Q01DX009 (ip), vehicle: Klucel (hydroxypropylcellulose) (HPC)
[8] = dose: 100.0 mg/kg/injection, schedule: Q01DX009 (ip), vehicle: saline with Tween-80
[9] = dose: 200.0 mg/kg/injection, schedule: Q01DX009 (ip), vehicle: saline with Tween-80
[10] = dose: 400.0 mg/kg/injection, schedule: Q01DX009 (ip), vehicle: saline with Tween-80
[11] = dose: 100.0 mg/kg/injection, schedule: Q01DX009 (ip), vehicle: other
[12] = dose: 200.0 mg/kg/injection, schedule: Q01DX009 (ip), vehicle: other

Measured: T/C

NC(=O)C(NC(=O)c1ccc([N+](=O)[O-])cc1)SCc1ccccc1 (stereo not given)
inactive: dose: 100.0 mg/kg/injection, schedule: Q04DX002 (ip), vehicle: gum acacia 96 % of control | dose: 200.0 mg/kg/injection, schedule: Q04DX002 (ip), vehicle: gum acacia 90 % of control | dose: 400.0 mg/kg/injection, schedule: Q04DX002 (ip), vehicle: gum acacia 86 % of control

O=C(CN1C2CCC1CC(O)C2)NCC1C(c2ccccc2)C1c1ccccc1 (stereo not given)
inactive: dose: 25.0 mg/kg/injection, schedule: Q04DX002 (ip), vehicle: Klucel (hydroxypropylcellulose) (HPC) 111 % of control | dose: 50.0 mg/kg/injection, schedule: Q04DX002 (ip), vehicle: Klucel (hydroxypropylcellulose) (HPC) 95 % of control | [1] 109 % of control

CC1(C(=O)O)CC1(C)C(=O)O (stereo not given)
inactive: [2] 103 % of control | [3] 96 % of control | [4] 92 % of control

CCCCCCCCCCCC[P+](CCCC)(CCCC)CCCC
inactive: dose: 0.55 mg/kg/injection, schedule: Q01DX Z (ip), vehicle: saline 110 % of control | dose: 1.16 mg/kg/injection, schedule: Q01DX Z (ip), vehicle: saline 100 % of control | dose: 1.25 mg/kg/injection, schedule: Q01DX Z (ip), vehicle: saline 110 % of control

N#CCC(=O)N/N=C\c1ccc2c(c1)OCO2
inactive: dose: 100.0 mg/kg/injection, schedule: Q01DX001 (ip), vehicle: carboxymethylcellulose (CMC) 97 % of control | dose: 200.0 mg/kg/injection, schedule: Q01DX001 (ip), vehicle: carboxymethylcellulose (CMC) 94 % of control | dose: 400.0 mg/kg/injection, schedule: Q01DX001 (ip), vehicle: carboxymethylcellulose (CMC) 97 % of control

CCOC(=O)C(C)(C)Oc1ccc(OC(C)(C)C(=O)OCC)cc1
inactive: [5] 93 % of control | [6] 100 % of control | [7] 102 % of control

O=C(C1=C(C(=O)c2ccccc2)C2C=CC1C2)c1ccccc1
inactive: dose: 75.0 mg/kg/injection, schedule: Q04DX003 (ip), vehicle: Klucel (hydroxypropylcellulose) (HPC) 96 % of control | dose: 150.0 mg/kg/injection, schedule: Q04DX003 (ip), vehicle: Klucel (hydroxypropylcellulose) (HPC) 94 % of control | dose: 300.0 mg/kg/injection, schedule: Q04DX003 (ip), vehicle: Klucel (hydroxypropylcellulose) (HPC) 89 % of control

C/C=C\CC(C(C)=O)C(=O)OCC (stereo not given)
inactive: dose: 75.0 mg/kg/injection, schedule: Q01DX009 (ip), vehicle: saline 92 % of control | dose: 100.0 mg/kg/injection, schedule: Q04DX003 (ip), vehicle: saline 105 % of control | dose: 150.0 mg/kg/injection, schedule: Q01DX009 (ip), vehicle: saline 92 % of control | dose: 200.0 mg/kg/injection, schedule: Q04DX003 (ip), vehicle: saline 91 % of control | dose: 300.0 mg/kg/injection, schedule: Q01DX009 (ip), vehicle: saline 97 % of control | dose: 400.0 mg/kg/injection, schedule: Q04DX003 (ip), vehicle: saline 104 % of control

CSc1ccc(NC(=O)NS(=O)(=O)c2ccc(C)cc2)cc1
inactive: [8] 88 % of control and 91 % of control | dose: 100.0 mg/kg/injection, schedule: Q04DX002 (ip), vehicle: saline with Tween-80 96 % of control | [2] 95 % of control | [9] 97 % of control and 91 % of control | dose: 200.0 mg/kg/injection, schedule: Q04DX002 (ip), vehicle: saline with Tween-80 89 % of control | [3] 89 % of control | [10] 87 % of control | dose: 400.0 mg/kg/injection, schedule: Q04DX002 (ip), vehicle: saline with Tween-80 100 % of control and 86 % of control | [4] 90 % of control

O=[N+]([O-])c1ccc(/C=C/c2ccccc2)cc1
inactive: [5] 97 % of control | dose: 100.0 mg/kg/injection, schedule: Q04DX003 (ip), vehicle: Klucel (hydroxypropylcellulose) (HPC) 109 % of control | [6] 95 % of control | dose: 200.0 mg/kg/injection, schedule: Q04DX003 (ip), vehicle: Klucel (hydroxypropylcellulose) (HPC) 98 % of control | [7] 96 % of control | dose: 400.0 mg/kg/injection, schedule: Q04DX003 (ip), vehicle: Klucel (hydroxypropylcellulose) (HPC) 105 % of control

Cc1cccc(Sc2cccc3c2C(C)(O)c2c(Sc4cccc(C)c4)cccc2C3(C)O)c1 (stereo not given)
inactive: [2] 96 % of control | [3] 95 % of control | [4] 96 % of control

C=CS(=O)CCCCCCCC (stereo not given)
inactive: [1] 102 % of control | dose: 200.0 mg/kg/injection, schedule: Q04DX002 (ip), vehicle: Klucel (hydroxypropylcellulose) (HPC) 102 % of control

CC(C)OCCSP(SCCOC(C)C)SCCOC(C)C
inactive: dose: 25.0 mg/kg/injection, schedule: Q04DX003 (ip), vehicle: saline with Tween-80 96 % of control | dose: 50.0 mg/kg/injection, schedule: Q04DX003 (ip), vehicle: saline with Tween-80 107 % of control | [2] 96 % of control

O=C(O)C1CCC1C(=O)O (stereo not given)
inactive: dose: 100.0 mg/kg/injection, schedule: Q04DX002 (ip), vehicle: saline 90 % of control | dose: 200.0 mg/kg/injection, schedule: Q04DX002 (ip), vehicle: saline 90 % of control | dose: 400.0 mg/kg/injection, schedule: Q04DX002 (ip), vehicle: saline 87 % of control

CC(=O)[O][Sn]([CH2]c1ccccc1)([CH2]c1ccccc1)[O]C(C)=O
inactive: [11] 109 % of control | dose: 100.0 mg/kg/injection, schedule: Q04DX003 (ip), vehicle: other 92 % of control | [12] 98 % of control | dose: 200.0 mg/kg/injection, schedule: Q04DX003 (ip), vehicle: other 97 % of control | dose: 400.0 mg/kg/injection, schedule: Q01DX009 (ip), vehicle: other 95 % of control | dose: 400.0 mg/kg/injection, schedule: Q04DX003 (ip), vehicle: other 95 % of control

COc1ccc(Cl)cc1NC(=O)C(Br)C(Br)C(=O)O (stereo not given)
inactive: [11] 96 % of control | [12] 100 % of control

COC(=O)CC(=O)C(C)(C)C
inactive: dose: 50.0 mg/kg/injection, schedule: Q01DX009 (ip), vehicle: saline with Tween-80 101 % of control | [8] 101 % of control | [9] 101 % of control

Cc1cc(O)cc(C)c1Cl
inactive: [8] 91 % of control | [2] 92 % of control | [9] 92 % of control | [3] 96 % of control | [10] 89 % of control | [4] 96 % of control
